Entries after “also recorded” stand apart in the source; their conditions may differ.
Experiments:
[1] = tested on: C. elegans hermaphrodites and males; assay: Spot attraction assay; format: in vivo
Description: The spot attraction assays were conducted according to a previously reported method (Pungaliya et al., PNAS 106:7708-13 (2009); Srinivasan et al., Nature 454:1115-18 (2008), which are hereby incorporated by reference in their entirety). For both C. elegans hermaphrodites and males, 50-60 worms were harvested daily at the fourth larval stage (L4) and stored segregatedly by sex at 20° C. overnight, to be used as young adults the following day. For the competition experiments, two conditions were used: 120 nM ascr#3 and 10 nM icas#3 (Condition 1), or 12 μM ascr#3 and 1 μM icas#3 (Condition 2) in water containing 10% ethanol. Aliquots were stored at −20° C. in 20 μL tubes. 10% ethanol in water was used as control.
Attraction assays with hbas#3 were conducted as previously reported (Srinivasan et al., Nature 454:1115-18 (2008); Pungaliya et al., Proc. Natl. Acad. Sci. U.S.A. 106:7708-13 (2009), which are hereby incorporated by reference in their entirety). For the attraction assays, 50-60 hermaphrodite worms were harvested daily at the early fourth larval stage (L4) and stored at 20° C. overnight to be used as young adults the following day. Hbas#3 was dissolved in water containing 10% ethanol. Aliquots were stored at −20° C. in 20 μL tubes. 10% ethanol in water was used as control.

[2] = tested on: S. feltiae; assay: Ascaroside function (Table 12), S. feltiae; format: in vivo, Steinernema feltiae
Description: (§1) Various ascarosides and ascaroside blends were administered to various nematodes described below (Table 12). […] A very strong result of affecting nematode behavior is designated in the table as “strong.”

[3] = tested on: C. elegans; details: in vivo; cited from earlier work
[4] = tested on: C. elegans; details: in vivo; cited from earlier work; remark: listed apart in the source
[5] = tested on: Panagrellus redivivus; assay: Ascaroside function (Table 12), Panagrellus redivivus; format: in vivo
Description: as §1

[6] = tested on: C. elegans; assay: Ascaroside function (Table 12), C. elegans; format: in vivo, Caenorhabditis elegans; parameters: key to Attract Females/Herm. / Promote Dauer Formation / Attract Males: A very strong result of affecting nematode behavior is designated in the table as “strong.”
How it was run: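 Ascarosides, alone or blended, administered to nematodes; behavior change scored qualitatively, with "strong" denoting a very strong effect.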

[7] = tested on: P. redivivus females; assay: Retention assay, P. redivivus females; details: in vivo
Description: OP50 E. coli was grown on a standard 5 cm agar plate (made with standard Nematode Growth Medium). The bacterial lawn was 16 mm in diameter and was grown overnight at 20° C. before being used in trials. Two 4 mm spots (0.6 μL) were placed on opposite sides of the bacterial lawn (using a transparent template to guide spot placement), and several minutes elapsed for the liquid to settle in before placing nematodes down on the assay. Recording began immediately upon worm placement. […]
Nematodes were isolated by gender at the L4 stage the day before being used in trials as developed adults. […] Trials were recorded for 20 minutes, and frames were collected for analysis at 1 frame per second. […]
A video camera attached to the microscope produced a digital video stream, which was then analyzed. The ratio of the time the average worm spent in each region of interest was calculated for every trial. […] Thus worm pixels were counted instead of whole worms, allowing fractions of a worm in the region of interest to be taken into account. It also eliminated the need for a shape-based worm identification algorithm, and allowed each frame to be analyzed independently. […] Thus, the ratio of worm-pixels to all pixels inside the region of interest can be calculated to produce the worm-occupancy ratio. […]

[8] = tested on: C. elegans; assay: Aggregation assay; format: in vivo
Description: Aggregation behavior of worms was measured using assays reported in de Bono & Bargmann, Cell 94:679-89 (1998), which is hereby incorporated by reference in its entirety. Aggregation assays were conducted on standard NGM plates. Plates containing indole ascarosides were made by adding the indole ascaroside stock solution to the NGM media before they were poured onto the plates. These plates were dried at room temperature for 2 to 3 days. Control plates were treated similarly, except that ethanol solutions instead of icas solutions were added to the plates, corresponding to the amount of ethanol introduced via the icas solutions. Final ethanol concentrations of the plates were below 0.1% for all conditions. After drying, both control plates and plates containing indole ascarosides were seeded with 150 μl of an overnight culture of E. coli OP50 using a micropipette, and were allowed to dry for 2 days at room temperature. For “low worm density” experiments, 20 worms were placed onto the lawn and left at 20° C. for 3 hours. For “high worm density” experiments, approximately 120 worms were placed onto the bacterial lawn and left at 20° C. for 3 hours. Aggregation behavior was quantified as the number of animals that were in touch with two or more animals at greater than 50% of their body length.

[9] = tested on: S. glaseri; assay: Ascaroside function (Table 12), S. glaseri; format: in vivo
Description: as §1

[10] = tested on: males; assay: Bioassay of HPLC-purified peak; format: in vivo; details: purified peak with retention time of 9.7 minutes
Description: A Thermo Finnigan LCQ Deca XP Max was used with electrospray ionization in positive ion mode in the 50-1000 AMU range. The Thermo Separation spectra HPLC system consisted of a P4000 quaternary pump, an AS 3000 auto sampler, and a UV 6000 diode array detector. The solvents were water with (a) 0.1% formic acid and (b) 90% acetonitrile-10% water with 10 mM ammonium formate. The column temperature was maintained at 60° C. and a solvent flow of 1.0 ml/min. The reversed phase column (PLRP-S Polymeric reversed phase column, 250×4.6 mmid, Varian Inc.) was eluted with a solvent composition starting with 90:10 (a,b) for 2 minutes, followed by a gradient to 5:95 in 20 minutes and an additional 5 minutes at 5:95. Ultraviolet absorption was monitored at 190 and 400 nm. Solvent flow between the ultraviolet detector and mass spectroscopy electrospray interface split 9:1 with a low-volume micro needle P450 splitter valve (Upchurch Scientific, Oak Harbor, Wash.), making it possible to obtain spectra of eluted compounds and simultaneously collect 90% of the injected material for bioassay. […] This was confirmed to be ascr#1 using NMR analysis.

[11] = tested on: several of the tested nematode species; assay: Retention assay, across species; format: in vivo; details: 1 nM, 1 μM and 1 mM tested
Description: OP50 E. coli was grown on a standard 5 cm agar plate (made with standard Nematode Growth Medium). The bacterial lawn was 16 mm in diameter and was grown overnight at 20° C. before being used in trials. Two 4 mm spots (0.6 μL) were placed on opposite sides of the bacterial lawn (using a transparent template to guide spot placement), and several minutes elapsed for the liquid to settle in before placing nematodes down on the assay. Recording began immediately upon worm placement. 0.6 μL of the control was placed on one side of the lawn, and 0.6 μL of the experimental cue was placed on the other side of the lawn, changing the location of the cue throughout trials between left/right and top/bottom to avoid bias.
Nematodes were isolated by gender at the L4 stage the day before being used in trials as developed adults. Worms were evenly divided and placed at two points equidistant from the foci of the scoring region. Trials were recorded for 20 minutes, and frames were collected for analysis at 1 frame per second. Results were averaged from at least three different trials. For every nematode species in this study, a different total number of worms (using water in both scoring regions) was tested to determine the minimum number of worms necessary for consistent unbiased results over a 20 minute trial. The total number of worms used in the multiple species assays depended on that species' optimal parameters. 10 worms were used for P. redivivus males and females, 20 worms were used for C. elegans males and O. dolichuridae males, and 14 worms were used for S. glaseri males. The Automated Software was used to compare worm occupancy in each scoring region over time, and the Chemotaxis Index (Bargmann et al., Cell 74:515-27 (1993), which is hereby incorporated by reference in its entirety) was adapted to score preference or avoidance to each ascaroside.
A video camera attached to the microscope produced a digital video stream, which was then analyzed. The ratio of the time the average worm spent in each region of interest was calculated for every trial. For ease of implementation, all worms in a single experiment were assumed to be roughly the same size. Thus worm pixels were counted instead of whole worms, allowing fractions of a worm in the region of interest to be taken into account. It also eliminated the need for a shape-based worm identification algorithm, and allowed each frame to be analyzed independently. A band-pass filter was applied to each frame to eliminate the effect of uneven lighting and also accentuate the worms against the background. The worm was then identified after thresholding the filtered image. Throughout each experiment, the locations and sizes of the regions of interest were known. Through the filtering described above, it is known which pixels are occupied by worms and which ones are not. Thus, the ratio of worm-pixels to all pixels inside the region of interest can be calculated to produce the worm-occupancy ratio. This calculation was done for every frame, giving a plot output of worm-occupancy ratio vs. time for each region.

SMILES: C[C@H](CCC(=O)O)O[C@@H]1O[C@@H](C)[C@H](OC(=O)c2c[nH]c3ccccc23)C[C@H]1O [icas#9]
- attraction of both C. elegans sexes ([1]; high concentrations, 1 μmol, N2 hermaphrodites and him-5 males): attractive; also recorded: attracted
- attraction of males ([1]; low concentrations, males): but not males
- Dispersal (of dauer larvae, infectious juveniles) [2]: icas#9
- dauer-inducing activity [3]: moderate; also recorded: promote dauer entry
- shape of dauer response curve [3]: bell-shaped
- aggregation in C. elegans [4]: aggregating stimulant
- Repel Females/Herm. [5]: icas#9
- Attract Females/Herm. [6]: ([strong])
- Promote Dauer Formation [6]: icas#9
- response of P. redivivus females [7]: repealed
- active concentration window (hermaphrodite attraction and aggregation) ([8]; in vivo): femtomolar to picomolar; also recorded: fM-pM
- aggregation of solitary and social hermaphrodites ([8]; low worm density (20 worms per 5 cm plate)): increased aggregation

SMILES: C[C@H](CCCCC(=O)O)O[C@@H]1O[C@@H](C)[C@H](O)C[C@H]1O [ascr#1]
- Attract Males [5]: ascr#1
- Attract Males [9]: ascr#1
- activity to males in the bioassay [10]: active
- preference for areas conditioned by ascaroside [11]: preferred
- Attract Males [6]: ascr#1
- Promote Dauer Formation [6]: ascr#1
